Measurements published in patent US20060286054A1, “PHARMACEUTICAL COMPOSITIONS FOR THE TREATMENT OF PSORIASIS” (Apollo Pharmaceutical, Inc., priority 2005, published 2006).
Where “and” joins values, the source holds several entries; their conditions need not be identical. Equal entries are not always repeated.

Legend:
THP-1 cells = experiment: MTT assay of THP-1 cell proliferation; assay type: cell-based; conditions: titration
Experimental: THP-1 cells were sub-cultured in 96 well culture plates at a density of 20,000 cells/well. LPS (100 ng/ml) and titrating amounts of Psorberine and/or Calcipotriol were then added to triplicate wells. The cells were cultured for 5 days, at which point the culture plates were centrifuged, the culture media removed and saved, and fresh media containing 0.863 mg/ml MTT added. After culturing for an additional 4 h, the plates were centrifuged again, the media removed from the formazan crystals and the well contents solubilized in DMSO. The absorbance of each well at 560 nm was measured. The data were normalized to the averaged results of the control wells receiving water. The culture supernatants were tested in ELISA (Bio-Source, International) for IL-8, TNF-α and IL-1β content. The effect of Psorberine on THP-1 cell proliferation was examined. […] The increase in the percentage of control seen in the MTT assay at the high concentrations of Psorberine (1:10 and 1:20 dilutions), is most probably due to the strong coloring of the compound (dark green). There is a very high OD recovered from MTT assay upon incubating […] cells with these dilutions of Psorberine.

Peripheral blood T cell = experiment: T cell proliferation measured by the MTT assay; assay type: cell-based; conditions: for MTT % of Control: T cells, W/LPS
Experimental: Twenty ml aliquots of heparinized whole blood were subjected to density gradient centrifugation on Ficoll Hypaque. The buffy coat layers representing peripheral blood mononuclear cells (PBMCs) containing lymphocytes and monocytes were washed once, resuspended in RPMI 1640 containing 10% fetal calf sera and then depleted of B cells and monocytes with a T cell enrichment column (R&D Systems). The T cell preparations were centrifuged, resuspended in 5 ml of incomplete RPMI and counted using a hemocytometer. Aliquots of each cell preparation (40,000 cells in 200 μl of incomplete RPMI) were placed in the wells of 96 well culture plates and cultured overnight at 37° C. under 5% CO2. Twenty five μl of RPMI containing 1 μg/ml PMA and 8 μg/ml ionomycin. After culturing for 24 h, the plates were centrifuged at 1200 rpm for 10 min and the culture supernatants removed and saved. Two hundred μl of complete RPMI containing 0.86 mg/ml MTT was added to each well and the plates cultured for an additional 4 h. The plates were centrifuged again, the media removed and the well contents solubilized in 100% DMSO. The optical density at 560 nm of each well was determined and the averaged mean of the duplicate well calculated. The background OD560 value, determined from control wells receiving media containing no MTT, was subtracted from these values and the data normalized to that of the control wells (0 nM compound). IL-2 secretion by activated T cells was determined in the culture supernatants of these cells. The supernatants were assessed using the R&D Biosystems ELISA kit for human IL-2.

IL-2 [1] = experiment: IL-2 release from THP-1 cells; assay type: cell-based; conditions: titration curve centered at ˜5 nM
IL-2 [2] = experiment: IL-2 secretion by peripheral blood T cells activated with PMA plus ionomycin (ELISA); assay type: cell-based, human; conditions: 24 h, between 0.01-10 nM
Experimental: Twenty ml aliquots of heparinized whole blood were subjected to density gradient centrifugation on Ficoll Hypaque. The buffy coat layers representing peripheral blood mononuclear cells (PBMCs) containing lymphocytes and monocytes were washed once, resuspended in RPMI 1640 containing 10% fetal calf sera and then depleted of B cells and monocytes with a T cell enrichment column (R&D Systems). The T cell preparations were centrifuged, resuspended in 5 ml of incomplete RPMI and counted using a hemocytometer.
Aliquots of each cell preparation (40,000 cells in 200 μl of incomplete RPMI) were placed in the wells of 96 well culture plates and cultured overnight at 37° C. under 5% CO2. […] The optical density at 560 nm of each well was determined and the averaged mean of the duplicate well calculated. The background OD560 value, determined from control wells receiving media containing no MTT, was subtracted from these values and the data normalized to that of the control wells (0 nM compound). IL-2 secretion by activated T cells was determined in the culture supernatants of these cells. The supernatants were assessed using the R&D Biosystems ELISA kit for human IL-2.
The release of IL-2 was also determined 24 h after stimulating peripheral blood T cells with PMA plus ionomycin, in the presence or absence of Psorberine and/or Calcipotriol. […]

Jurkat cells [3] = experiment: In vitro chemotaxis assay of Jurkat cells towards SDF-1α; assay type: cell-based; conditions: for Cell Number (migrated cells per filter) / Migration Index (MI): filters 1-4
Experimental: Jurakt cells ere grown in cultures in the presence of complete RPMI media. These cells were split one day prior to the assay. More than 99% viable cells were used in the chemotaxis assay. SDF-1α was purchased from Peprotech, Inc.
96 well plate chemotaxis chambers with a pore size of […] (ChemoTx, Neuro Probe, Inc.) were used in this assay. In the lower wells 30 μl of either RPMI plus 0.1% BSA (control), or 30 μl containing 1 μg/ml SDF-1α (positive chemotaxis) were placed. In other wells, 24 μl containing 1 μg/ml SDF-1α was added to 6 μl of media containing the appropriate concentrations of Psorberine, Calcipotriol or their combination. In the upper wells, 20 μl of media containing 20,000 cells (1×10^6/ml) either alone or in combinations with the compounds were placed. After 2 h, the upper part of the filters was washed with coton swaps to remove the non-migrating cells, and the filters were fixed with absolute methanol for 3 minutes. After this, the filters were stained with 15% Giemsa stain for 7.5 min. The filters were washed three times with distilled water, and the cells migrating to the lower wells were counted under light micriscope. For control (cells migrating in the absence of the chemoattractant), 7 filters were used, whereas 4 filters were used in the experimental conditions. Migration Index (MI) was calculated by dividing the number of cells migrating in the experimental filters by the average number of cells migrating in the control filters.

Jurkat cells [4] = experiment: Viability of Jurkat cells (Trypan blue exclusion); assay type: cell-based
Experimental: The chemotaxis assay was corroborated by determining the viability of Jurkat cells. Viability of these cells either incubated in culture medium alone or with Psorberine or Calcipotriol under the same conditions as in the chemotaxis assay, was done by distinguishing dead from viable cells in the Trypan blue exclusion test. Viability of THP-1 cells was determined after incubating these cells with various concentrations of Psorberine for 4 h.

keratinocyte = conditions: Muller et al. 1995; cited from earlier work
[5] = 1 μg/ml SDF-1α + 20 nM Calcipotriol
[6] = 1 μg/ml SDF-1α + 80 nM Calcipotriol
[7] = 1 μg/ml SDF-1α + 160 nM Calcipotriol

## C=C1/C(=C\C=C2/CCC[C@]3(C)[C@@H]([C@H](C)/C=C/[C@@H](O)C4CC4)CC[C@@H]23)C[C@@H](O)C[C@@H]1O [Calcipotriol, calcipotriol]
THP-1 cells
  effect of titrating levels on THP-1 cell proliferation: multi-phasic, with stimulation seen above concentrations of 1 nM
Peripheral blood T cell; concentration 0.050 (unit not given)
  MTT % of Control: 109.0164%
Peripheral blood T cell; concentration 0.100 (unit not given)
  MTT % of Control: 88.52%
Peripheral blood T cell; concentration 0.500 (unit not given)
  MTT % of Control: 107.377%
Peripheral blood T cell; concentration 1.000 (unit not given)
  MTT % of Control: 99.18%
Peripheral blood T cell; concentration 5.000 (unit not given)
  MTT % of Control: 78.69%
Peripheral blood T cell; concentration 10.000 (unit not given)
  MTT % of Control: 116.3934%
Peripheral blood T cell; concentration 50.000 (unit not given)
  MTT % of Control: 113.1148%
Peripheral blood T cell; concentration 100.000 (unit not given)
  MTT % of Control: 83.61%
Peripheral blood T cell; absence or presence of PMA plus ionomycin
  T cell proliferation: Significant differences in T cell proliferation were not observed
IL-2 [1]
  IL-2 release: slight increase
IL-2 [2]
  reduction of IL-2 concentration: 40-50%
Jurkat cells [3]; [5]
  Cell Number (migrated cells per filter): 240 and 200 and 155 and 170
  Migration Index (MI): 5.7 and 4.8 and 3.7 and 4.1
Jurkat cells [3]; [6]
  Cell Number (migrated cells per filter): 240 and 160 and 180 and 220
  Migration Index (MI): 5.7 and 3.8 and 4.3 and 5.2
Jurkat cells [3]; [7]
  Cell Number (migrated cells per filter): 200 and 198 and 150 and 205
  Migration Index (MI): 4.8 and 4.7 and 3.6 and 4.9
Jurkat cells [3]; between 20-160 nM
  SDF-1α-induced Jurkat cell chemotaxis: did not affect
Jurkat cells [4]; 20 nM Calcipotriol
  # Dead Cells: 178
  # Viable Cells: 18
  % Viability: 91%
Jurkat cells [4]; 80 nM Calcipotriol
  # Dead Cells: 175
  # Viable Cells: 17
  % Viability: 91%
Jurkat cells [4]; 160 nM Calcipotriol
  # Dead Cells: 134
  # Viable Cells: 11
  % Viability: 92%

## COc1ccc2cc3[n+](cc2c1OC)CCc1cc2c(cc1-3)OCO2 [berberine]
keratinocyte
  keratinocyte growth in vitro: inhibits
